Experiment [1] concerns the target T1, FXR (CMX-hFXR with CMX-RXRα in CV-1 cells) (Homo sapiens, UniProt Q96RI1).
T1 construct: expressed in transfected cells; host or cells: CV-1 African Green Monkey Kidney cells
T1 sequence (Q96RI1 1-472 isoform Q96RI1-2): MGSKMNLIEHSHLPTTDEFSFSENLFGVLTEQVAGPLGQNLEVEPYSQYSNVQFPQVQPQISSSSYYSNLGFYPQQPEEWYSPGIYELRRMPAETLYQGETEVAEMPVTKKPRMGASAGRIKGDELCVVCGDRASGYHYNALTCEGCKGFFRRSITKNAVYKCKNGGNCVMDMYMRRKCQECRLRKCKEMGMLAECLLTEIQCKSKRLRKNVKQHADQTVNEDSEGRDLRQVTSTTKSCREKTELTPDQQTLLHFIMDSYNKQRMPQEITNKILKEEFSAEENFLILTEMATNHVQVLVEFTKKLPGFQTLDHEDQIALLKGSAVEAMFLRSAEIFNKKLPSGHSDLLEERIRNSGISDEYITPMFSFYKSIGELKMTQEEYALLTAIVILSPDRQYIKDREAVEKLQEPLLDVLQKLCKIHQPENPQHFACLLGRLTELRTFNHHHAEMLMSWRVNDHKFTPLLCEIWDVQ
T1 sequence (P19793 1-462 partner): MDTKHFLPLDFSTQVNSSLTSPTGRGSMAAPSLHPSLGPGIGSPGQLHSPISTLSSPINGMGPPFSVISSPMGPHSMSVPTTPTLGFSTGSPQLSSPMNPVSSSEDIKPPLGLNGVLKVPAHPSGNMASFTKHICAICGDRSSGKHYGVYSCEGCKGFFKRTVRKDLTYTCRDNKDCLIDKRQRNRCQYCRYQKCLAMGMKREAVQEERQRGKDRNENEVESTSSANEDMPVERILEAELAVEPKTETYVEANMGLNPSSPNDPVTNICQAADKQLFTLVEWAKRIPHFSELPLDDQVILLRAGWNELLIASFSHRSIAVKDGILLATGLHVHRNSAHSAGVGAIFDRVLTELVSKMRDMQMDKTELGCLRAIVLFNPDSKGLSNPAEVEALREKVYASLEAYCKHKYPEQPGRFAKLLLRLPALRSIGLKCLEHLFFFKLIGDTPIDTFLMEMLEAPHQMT
Nature of the experiment: FXR/ECREx7 co-transfection assay (luciferase reporter). It is filed as cell-based. The settings on record: for EC50: FXR agonism. Here is the method:
The basic co-transfection protocol for measuring FXR activity is as follows. CV-1 African Green Monkey Kidney cells are plated 24 hours before transfection to achieve approximately 70–80 percent confluency. Cells are transfected with CMX-hFXR, CMX-RXRα, Luc12 reporter (ECREx7-Tk-Luciferase), and a CMX-β-Galactosidase expression vector. The transfection reagent used is DOTAP. Cells are incubated with the DOTAP/DNA mixture for 5 hours after which the cells are harvested and plated onto either 96 well or 384 well plates containing the appropriate concentration of test compound. The assay is allowed to continue for an additional 18–20 hours, after which the cells are lysed, and the luciferase activity is measured on a standard plate reader.
Both the FXR/ECREx7 co-transfection assay (Example 54) and the TR-FRET assay (Example 53) can be used to establish the EC50/IC50 values for potency and percent activity or inhibition for efficacy. Efficacy defines the activity of a compound relative to a high control (chenodeoxycholic acid, CDCA) or a low control (DMSO/vehicle). The dose response curves are generated from an 8 point curve with concentrations differing by ½ LOG units. Each point represents the average of 4 wells of data from a 384 well plate. The curve for the data is generated by using the equation: Y=Bottom+(Top−Bottom)/(1+10^((LogEC50−X)*HillSlope))
The EC50/IC50 is therefore defined as the concentration at which an agonist or antagonist elicits a response that is half way between the Top (maximum) and Bottom (baseline) values. The EC50/IC50 values represented are the averages of at least 3 independent experiments. The determination of the relative efficacy or % control for an agonist is by comparison to the maximum response achieved by chenodeoxycholic acid that is measured individually in each dose response experiment.
For the antagonist assay, 40 μM CDCA is added to each well of a 384 well plate to elicit a response. The % inhibition for each antagonist is therefore a measurement of the inhibition of the activity of 40 μM CDCA. In this example 100% inhibition would indicate that the activity of 40 μM CDCA has been reduced to baseline levels, defined as the activity of the assay in the presence of DMSO only.
(In general: A reporter such as luciferase makes a cellular process visible.)

The next experiment concerns the target T2, GST-FXR-LBD (Homo sapiens, UniProt Q96RI1).
T2 sequence (Q96RI1 244-472 isoform Q96RI1-2): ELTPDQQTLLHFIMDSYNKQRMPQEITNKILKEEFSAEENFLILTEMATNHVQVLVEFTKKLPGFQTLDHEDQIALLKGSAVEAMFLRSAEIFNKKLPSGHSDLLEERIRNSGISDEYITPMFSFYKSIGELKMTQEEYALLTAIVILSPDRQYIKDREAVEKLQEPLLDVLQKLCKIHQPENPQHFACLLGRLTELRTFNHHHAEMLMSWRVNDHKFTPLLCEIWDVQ
Briefly: Time resolved fluorescence resonance energy transfer (TR-FRET) coactivator recruitment assay. It is filed as biochemical. Here is the method:
The FRET assay was performed by incubating 8 nM of GST-FXR-LBD, 8 nM of Europium-labeled anti-GST antibody (Wallac), 16 nM biotin-SRC-1 peptide [5′-biotin-[…]-CONH2], 20 nM APC-SA [allophycocyanin conjugated streptavidin] (Wallac) in FRET assay buffer (20 mM KH2PO4/K2HPO4 (pH 7.3), 150 mM NaCl, 2 mM CHAPS, 2 mM EDTA, 1 mM DTT) in the presence of the test compound(s) for 2–4 hours at room temperature. Data was collected using an LJL Analyst with readings at 615 nm and 665 nm.
Both the FXR/ECREx7 co-transfection assay (Example 54) and the TR-FRET assay (Example 53) can be used to establish the EC50/IC50 values for potency and percent activity or inhibition for efficacy. Efficacy defines the activity of a compound relative to a high control (chenodeoxycholic acid, CDCA) or a low control (DMSO/vehicle). The dose response curves are generated from an 8 point curve with concentrations differing by ½ LOG units. Each point represents the average of 4 wells of data from a 384 well plate. […]
The EC50/IC50 is therefore defined as the concentration at which an agonist or antagonist elicits a response that is half way between the Top (maximum) and Bottom (baseline) values. […] The determination of the relative efficacy or % control for an agonist is by comparison to the maximum response achieved by chenodeoxycholic acid that is measured individually in each dose response experiment. […]
A general note: TR-FRET usually uses a lanthanide donor and a delayed reading to cut background.

Read-outs that look alike come from different tables or passages of the source.

Regarding `CCNc1ccc(C#N)cc1N=C1SC(=C2Sc3ccccc3N2C)C(=O)N1Cc1ccccc1` [Example 32, 3-[3-benzyl-5-(3-methyl-3H-benzothiazol-2-ylidene)-4-oxothiazolidin-2-ylideneamino]-4-(ethylamino)benzonitrile], the Emax in experiment [1] (CV-1, relative to maximum response of chenodeoxycholic acid (CDCA), co-transfection assay, read-out: % efficacy) is approximately 150%. The EC50 (usually the concentration at which the effect is half-maximal) in experiment [1] (co-transfection assay) was approximately 10 nM.

`CCNc1ccc(C#N)cc1N=C1SC(=C2SC(C)=C(c3ccccc3)N2C)C(=O)N1Cc1ccccc1` [Example 52, 3-(3′-benzyl-3,5-dimethyl-4′-oxo-4-phenyl-3′,4′-dihydro-3H-[2,5′]-bithiazolyliden-2′-ylideneamino)-4-(ethylamino)benzonitrile]: the Emax in experiment [1] (CV-1, read-out: % efficacy) was approximately 32%. In experiment [1] (co-transfection assay), this compound displayed an EC50 of approximately 56 nM. In addition, the 50% inhibitory concentration (IC50) (as a rule, the point on the concentration scale where inhibition reaches its midpoint) against GST-FXR-LBD (FXR antagonism) is approximately 42 nM. Moreover, the “% inhibition” value on GST-FXR-LBD (inhibition of the activity of 40 μM CDCA) is listed as “about 48%”.

These data come from US7115640B2, “Heterocyclic modulators of nuclear receptors” (X-Ceptor Therapeutics, Inc., priority 2001, dated 2006).
